Results on three molecules are retold here after patent publication US8524747B2, “Pharmaceutical compositions” (Keio University, priority 2008, dated 2013).

Molecules are shown by their SMILES.

For one data set, the system named is NF-κB. Briefly: DNA binding ability of NF-κB (gel shift assay). In kind it is cell-based. The conditions noted are these: RAW264.7 cells. The procedure:
Next, under the same conditions as in (2) above, RAW264.7 cells were cultured with the media supplemented with DTCM glutarimide-C12 at concentrations (0, 0.1, 0.3, 1.0 and 3.0 μg/mL) for 2 hours, to which 3.0 μg/mL of LPS was added, and the cells were further cultured for 30 minutes. Then, nuclear extracts were prepared by a routine method, and a gel shift assay was conducted with using 3 μL of a ^32P-labeled probe.
The probe was prepared as follows. First, 4 μL of 1.75 μmol/mL oligonucleotide (Promega Inc.) (5′-[…]-3′; SEQ ID N0.1), 4 μL of 10×T4 PNK buffer (Takara) and 10 μL of nucleotide free water were mixed, to which 2 μL of [γ-^32P]-ATP (Amarsham Corp.) was added, and incubated at 37° C. for 10 minutes. The reaction was then terminated by addition of 80 μL of TE buffer (10 mM Tris-HCl:1 mM EDTA=1:1). 100 μL of the reaction solution was loaded onto a Nick Column (Amersham Corp.) which had been prepared by removing the filled TE buffer and washing with distilled water, 400 μL of distilled water was loaded, and the eluate from the column was recovered in a 1.5 mL Eppendorf tube. Additional 400 μL of distilled water was loaded, and the fraction eluted again from the column was recovered in the 1.5 mL Eppendorf tube. The elute thus obtained was used as the labeled DNA probe. […]
(A gel shift assay detects complexes by their altered migration in electrophoresis.)

The test system of data set [1] is RAW264.7 cells. Briefly: Cytotoxicity on RAW264.7 cells: cell survival rate (trypan blue) and total cell number. In kind it is cell-based. The conditions noted are these: after 48 hours. Here is the method:
In this example, cytotoxicity of DTCM glutarimide on RAW264.7 cells was evaluated, based on cell survival rate and cell growth rate.
The RAW264.7 cells were seeded on plastic dishes at 1×10^4 cells/ml in DMEM medium containing 10% FBS, to which DTCM glutarimide-C12 was added at the concentration of 0, 0.1, 0.3, 1.0, 3.0 or 10.0 μg/mL to the media. After 24 hours or 48 hours of culture, numbers of total cells were counted using hemacytometer, and numbers of living cells were counted using trypan blue dye exclusion assay.

A further data set has as its system IL-6. Kind of data set: IL-6 production by macrophage activation (ELISA). In kind it is cell-based. The conditions noted are these: RAW264.7 cells, LPS. Here is the method: RAW264.7 cells were activated under the same conditions as in (4), the cells were recovered, proteins were extracted from the cells by a routine method. An ELISA was conducted using 96-well polystyrene microplates onto which the anti-IL-6 antibody had been immobilized. […] The detected concentrations of IL-6 per 10^6 cells were plotted in FIG. 9.
In general terms: ELISA stands for enzyme-linked immunosorbent assay.

The test system of data set [2] is murine bone marrow-derived macrophages. Briefly: Toxicity on murine bone marrow-derived macrophages (trypan blue dye exclusion). The data set is classed as cell-based, mouse. The procedure: An 8 week-old ICR mouse (male, purchased from Charles River) sacrificed by cervical dislocation was dissected under sterile conditions to isolate femora and […] from both legs. Medullary cavities were washed with α-MEM several times using a 21G needle attached to a 1 mL syringe. The fluid (α-MEM) after washing was filtrated through a nylon mesh (330 mesh) to remove unnecessary cells, and myelocytes were isolated. The myelocyte suspension in α-MEM thus obtained was diluted to 1.25 to 3.75×10^6 cell/mL. To 80 mL of the myelocyte suspension, 80 μL of hM-CSF (Wako Pure Chemical) at 10 μg/mL prepared with PBS containing 0.1% BSA was added (final concentration 10 ng/mL). The cells thus prepared were seeded onto 24-well plates (Corning Inc.) by 500 μL to 1 mL per well, and cultured at 37° C. under 5% CO2 for 2 days. Then, unattached cells were washed away with α-MEM, fresh α-MEM containing 10 ng/mL of hM-CSF was added, and the attached cells thus obtained were used as the murine bone marrow-derived macrophages.
The murine bone marrow-derived macrophages thus prepared were seeded onto 24-well plates (Corning Inc.) by 1 mL each (1.25 to 3.75×10^6 cell/mL). To each of the wells, DTCM glutarimide-C12 at respective concentrations of 1.0, 3.0, 10.0 and 30.0 μg/mL was added, and all the experimental groups were cultured at 37° C. under 5% CO2. The control group was cultured under the same condition but without addition of DTCM glutarimide-C12.
The cells in the experimental groups were detached using a cell scraper and dissolved in α-MEM at 24 hours, 48 hours and 72 hours after the addition of DTCM glutarimide-C12. Then 1 mL of the cell suspensions were recovered in fresh Eppendorf tubes. […] 10 μL of the cell suspensions was put onto a hemacytometer (Erma Inc.) and total cells and dead cells were counted under a microscope at 100× magnification. In hemacytometric counting, approximately 100 cells were counted per one visual field, and the cell survival rates obtained in four visual fields were averaged. The cell survival rate (%) was calculated according to the following formula. […]

In data set [3] the test system is RAW264.7 cells. Kind of data set: Inhibition of synthesis of DNA, RNA and protein (3H-thymidine, uridine, leucine incorporation). The conditions noted are these: concentrations up to 10.0 μg/mL, 6 hours + 1 hour label. The data set is classed as cell-based. Here is the method: In this example, the cytotoxicity of DTCM glutarimide on RAW264.7 cells was evaluated, based on the inhibition of synthesis of DNA, RNA and protein.
After RAW264.7 cells were cultured under the same conditions as in (2) with the media supplemented with DTCM glutarimide-C12 at concentrations (0, 0.1, 0.3, 1.0, 3.0 and 10.0 μg/mL) for 6 hours, ^3H-labeled 0.1% thymidine, 0.1% uridine and 0.1% leucine were added to the media and the cells were further cultured for 1 hour. The cells were recovered and radioactivity of TCA-insoluble fractions was measured by using a liquid scintillation counter. The counts obtained at the DTCM glutarimide-C12 concentrations were normalized by setting to 100 the count obtained without addition of DTCM glutarimide-C12 in a control experiment and relatively plotted in the graph shown in FIG. 3.

In another data set the test system is iNOS. Kind of data set: iNOS expression in macrophage activation (Western blotting). The conditions noted are these: RAW264.7 cells, LPS. In kind it is cell-based. Here is the method: RAW264.7 cells were activated under the same conditions as in (4), the cells were recovered and proteins were extracted from the cells by a routine method. Western blotting was conducted, using an anti-iNOS antibody (Santa Cruz Biotechnology) and an anti-α-tubulin antibody (Sigma Aldrich Japan) at the dilution ratio of 1/3000.
Background: A western blot detects proteins with antibodies after separation by electrophoresis.

The subject of data set [4] is murine bone marrow-derived macrophages. Briefly: RANKL-induced osteoclast differentiation of murine bone marrow-derived macrophages (TRAP staining). In kind it is cell-based, mouse. The conditions noted are these: 0.3, 1.0 and 3.0 μg/mL, RANKL 100 ng/mL, 5 days. The procedure: The primary murine bone marrow-derived macrophages prepared in Example (10) were plated onto 24-well plates (Corning Inc.) by 500 μL each (1.25 to 3.75×10^6 cell/mL). Then 5 μL of DTCM glutarimide-C12 was added to each of the wells to the final concentrations of 0, 0.3, 1.0 and 3.0 μg/mL. All the experimental groups of plates were cultured at 37° C. under 5% CO2 for 2 hours. hRANKL (Wako Pure Chemical) at 10 μg/mL prepared in PBS containing 0.1% BSA was then added by 5 μL each (final concentration 100 ng/mL), and culture was continued. RANKL has been known as a factor to induce osteoclasts differentiation of macrophages etc. (Kobayashi et al. Crit. Rev Eukaryot Gene Expr. 19(1), 61-72, 2009). The control group of plates was cultured under the same condition but without RANKL and DTCM glutarimide.
After 5 days of culture, the media were removed, and the cells were washed by PBS. 250 μL each of 3.5% paraformaldehyde was added to the wells to fix the cells for 5 minutes, and the fixative was washed away with PBS. […] Following an addition of 250 μL of PBS, the plates were observed under a microscope and the number of mature osteoclasts was counted in the entire visual field by regarding TRAP-positive cell having three or more fused nuclei as the mature osteoclast as it is known to be TRAP-positive.

The subject of data set [5] is RAW264.7 cells. Briefly: Living cell count by MTT method in LPS-stimulated cells. The conditions noted are these: all concentrations 0.1-3.0 μg/mL, 20 hours. The data set is classed as cell-based.
The next data set has as its system COX-2. Briefly: COX-2 expression in macrophage activation (Western blotting). In kind it is cell-based. The conditions noted are these: RAW264.7 cells, LPS. The procedure: RAW264.7 cells were activated under the same conditions as in (4), the cells were recovered, proteins were extracted from the cells in a routine method, and Western blotting was conducted using an anti-COX-2 antibody (BD Bioscience) and an anti-α-tubulin antibody (Sigma Aldrich Japan) at the dilution ratio of 1/3000.

Another data set has as its system F9 cells. Kind of data set: Survival rate and growth of F9 cancer cells. The data set is classed as cell-based, murine. Here is the method:
F9 cells derived from murine embryonic tumor cells (purchased from RIKEN Tsukuba Institute BioResource Center, Cell Engineering Division) were plated onto plastic dishes at 1×10^4 cell/mL in DMEM medium containing 15% FBS. DTCM glutarimide-C12 was then added at the concentration of 0, 0.1, 0.3, 1.0, 3.0, 10.0 or 30.0 μg/mL in the culture media, and were cultured for 24, 48 or 72 hours. By following the same method as described in “Measurement of Cell Survival Rate by Trypan Blue Staining” in Example (10), the survival rates of cells were measured. Also, suspensions of the cultured cells were similarly prepared and the numbers of cells in the suspensions were counted by Coulter Counter (Beckman Coulter Inc.) to evaluate cell growth.

Another data set deals with NO production. Briefly: NO production by LPS-activated macrophages (Griess reaction). In kind it is cell-based. The conditions noted are these: RAW264.7 cells. Here is the method:
After RAW264.7 cells were cultured under the same conditions as in (2) with the media supplemented with DTCM glutarimide-C12 at concentrations (0, 0.1, 0.3, 1.0 and 3.0 μg/mL) for 2 hours, 3.0 μg/mL of LPS was added to the media and the cells were further cultured for 20 hours. Then, NO production amounts were measured by Griess reaction and plotted against the respective DTCM glutarimide-C12 concentrations (the bar graph in FIG. 4).

[6] abbreviates: 0.1-3.0 μg/mL, 2 hours pretreatment, LPS 3.0 μg/mL, 20 hours.
[7] abbreviates: 10 μg/mL, positive control, LPS.

For `CCCCCCCCCCCCSC(=O)CC1CC(=O)NC(=O)C1` [DTCM glutarimide-C12], the “DNA binding ability of NF-κB” value with NF-κB (concentrations below 3.0 μg/mL, LPS 30 minutes) is “did not suppress the DNA binding ability of NF-κB”. For the same molecule, the “total cell number (cell growth)” value in the data set on RAW264.7 cells [1] (concentrations up to 1.0 μg/mL) is listed as “no suppression of cell growth was detected”. For the same molecule, in the data set with RAW264.7 cells [1] (concentrations up to 3.0 μg/mL), the “cell survival rate (living cell number/total cell number)” value is reported as “no cell killing effect was detected”. In addition, the IL-6 production result with IL-6 (concentrations below 3.0 μg/mL) is on record as “did not affect this IL-6 production”. Also, the survival rate entry in data set [2] (3.0 μL groups, regardless of culture time (24, 48, 72 hours)) is “more than 80%”; in data set [2] (10.0 and 30.0 μg/mL groups, regardless of culture time) it was “reduced”. Further, the “toxicity on murine myelocyte-derived macrophages” value in [2] (concentrations up to 3.0 μL) was “does not exhibit toxicity”. The “inhibition of synthesis of DNA, RNA and protein” value in the data set on RAW264.7 cells [3] was “no significant inhibitory activity”. The iNOS expression entry in the data set on iNOS (0.1-3.0 μg/mL) is on record as “prominently suppressed this iNOS expression in a concentration-dependent manner”. In [4], the number of osteoclasts result was “significantly reduced”. In addition, in the data set on RAW264.7 cells [5], the “numbers of living cells (MTT), cell growth” value is “did not affect the cell growth”. In addition, the COX-2 expression result in the data set with COX-2 (0.1-3.0 μg/mL) is on record as “prominently suppressed this COX-2 expression in a concentration-dependent manner”. Also, in the data set with F9 cells (0.1-30.0 μg/mL, 24, 48 or 72 hours, depending on concentration), the “cell survival rate of F9 cells” value is recorded as “significantly reduced”. In addition, the “cell growth of F9 cells” value in the data set with F9 cells (0.1-30.0 μg/mL, 24-72 hours, versus group without addition) was “suppressed”. Moreover, the “cell survival rate of F9 cells, 72-hour versus 24-hour and 48-hour culturing” value in the data set with F9 cells (10 or 30 μg/mL) is recorded as “significantly reduced cell survival rate”. Moreover, the NO production entry in the data set on NO production (setting [6]) is recorded as “significantly suppressed this NO production in a concentration-dependent manner”.
On to `CCCCCCSC(=O)CC1CC(=O)NC(=O)C1` [DTCM glutarimide-C6], for which the NO production entry with NO production (setting [6]) is on record as “suppresses NO production”; with NO production (0.1-3.0 μg/mL, 2 hours pretreatment, LPS 3.0 μg/mL, 20 hours, listed as DTCM glutarimide-C16) it was “almost the same results”.
As for `O=C(NC1=CC(=O)[C@H]2O[C@H]2[C@H]1O)c1ccccc1O` [(−)-DHMEQ, reference compound], the “activity of NF-κB (DNA binding)” value in the data set with NF-κB (setting [7]) is “the activity of NF-κB is suppressed”. Also, in the data set with IL-6 (10 μg/mL, positive control), the IL-6 production entry is “IL-6 production is suppressed”. The iNOS expression result in the data set on iNOS (10 μg/mL, control) is recorded as “iNOS expression is suppressed”. Also, the COX-2 expression result in the data set with COX-2 (10 μg/mL, positive control) is listed as “COX-2 expression is suppressed”. In addition, the NO production entry in the data set on NO production (setting [7]) is “NO expression is suppressed”.
